Experimental data reported in patent publication US20030022812A1, “Treating pain by targeting hyperpolarization-activated, cyclic nucleotide-gated channels” (priority 2001, published 2003).

Key:
human HCN3 = biological target: T1, human HCN3 (Homo sapiens, UniProt Q9P1Z3); test: Whole cell patch clamp of HEK293 cells stably expressing human HCN3; assay type: cell-based; conditions: for reversibility of HCN3 current block: ZD7288: washout of at least 15 min
T1 construct: expressed in transfected cells; host or cells: HEK293 cells stably transfected with hHCN3-pcDNA3.1 Zeo
T1 sequence (Q9P1Z3 1-774): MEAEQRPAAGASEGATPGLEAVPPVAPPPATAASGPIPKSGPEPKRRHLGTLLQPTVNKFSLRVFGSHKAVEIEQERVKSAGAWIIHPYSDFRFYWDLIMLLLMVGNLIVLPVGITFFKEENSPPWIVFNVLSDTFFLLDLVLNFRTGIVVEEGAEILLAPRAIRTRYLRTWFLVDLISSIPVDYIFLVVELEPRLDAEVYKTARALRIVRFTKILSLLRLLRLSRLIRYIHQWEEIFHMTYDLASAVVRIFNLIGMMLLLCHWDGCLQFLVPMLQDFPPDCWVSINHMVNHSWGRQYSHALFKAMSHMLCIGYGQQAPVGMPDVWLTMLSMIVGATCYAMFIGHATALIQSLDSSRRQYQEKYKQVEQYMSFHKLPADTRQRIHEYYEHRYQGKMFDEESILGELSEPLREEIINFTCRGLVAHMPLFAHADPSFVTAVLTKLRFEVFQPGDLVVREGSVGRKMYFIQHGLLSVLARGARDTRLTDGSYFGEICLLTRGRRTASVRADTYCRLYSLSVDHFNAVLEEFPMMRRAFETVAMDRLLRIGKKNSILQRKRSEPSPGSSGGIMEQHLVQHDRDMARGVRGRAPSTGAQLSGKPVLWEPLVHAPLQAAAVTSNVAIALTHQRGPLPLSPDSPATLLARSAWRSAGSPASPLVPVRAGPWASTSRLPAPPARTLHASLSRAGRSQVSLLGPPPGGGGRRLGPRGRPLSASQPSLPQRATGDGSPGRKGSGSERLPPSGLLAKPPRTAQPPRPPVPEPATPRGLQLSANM

normal rats = test: 55° C. hot plate test of acute thermally-evoked pain; assay type: in vivo, rat; conditions: 10 mg/kg i.p.
Experimental: A cutoff of 20 seconds of thermal surface exposure was employed to prevent tissue damage. Drug administration: Normal rats were administered ZD7288, 10 mg/kg, or an equivalent volume of saline, i.p. at time 0. Behavioral assessments were performed at 45, 60 and 75 minutes after drug administration.

[1] = system: rat mild thermal injury model; test: Spontaneous pain behaviors in rat mild thermal injury (first-degree burn) model; assay type: in vivo; conditions: 30 and 60 min after i.p. administration
Ih in large DRG neurons = test: Whole cell patch clamp of Ih in dissociated large L5 DRG neurons of SNL and control rats; assay type: cell-based, rat; conditions: Cs+ 3 mM extracellular; ZD7288 50 μM
Experimental: Methods: Rats were prepared according to the above SNL model (L5 ligation). Sham rats were prepared identically, but without resection of the transverse process to avoid nerve trauma, and without nerve ligation. After 7 days, rats were killed by cervical dislocation and the ipsilateral L4 (no ligation) and L5 DRGs were quickly excised with fine forceps under a stereomicroscope and placed in ice cold Tyrode's containing pen/strep antibiotics.
Dissociation and culture of DRG neurons: DRGs from the L5 level of SNL, sham ligated and naive rats, and the L4 level of SNL rats were removed and maintained in ice-cold Tyrode's solution (140 mM NaCl, 4 mM KCl, 2 mM CaCl2, 1.3 mM MgCl2, 10 mM D-glucose, 10 mM HEPES, pH adjusted to 7.4 with NaOH) with additional 2 mM Ca^+2 (Tyrode's) prior to dissociation. […]
Current and voltage signals were detected and filtered at 2 kHz with an Axopatch 1D patch-clamp amplifier (Axon Instruments, Foster City, Calif.), digitally recorded with a DigiData 1200B laboratory interface (Axon Instruments), and PC compatible computer system and stored on magnetic disk for off-line analysis. […]

[2] = system: rat complete Freund's adjuvant (CFA) model of hindpaw inflammation; test: Thermal hyperalgesia (modified Hargreaves apparatus) in rat CFA model of hindpaw inflammation; assay type: in vivo; conditions: 10 mg/kg i.p.
Experimental: However, blockade of HCN channels with ZD7288 at 10 mg/kg, i.p., had no effect on thermal hyperalgesia (measured using a modified Hargreaves apparatus) in two different models of inflammatory pain: the rat carrageenan model of hindpaw inflammation, and the rat complete Freund's adjuvant (CFA) model of hindpaw inflammation. As shown supra, HCN blockade also had little effect on acute thermally evoked pain in the hot plate test.

| Structure (SMILES) | block of HCN3 hyperpolarization-induced currents (human HCN3; 50 μM, n=3) | reversibility of HCN3 current block (human HCN3) | effect on acute thermally-evoked pain (normal rats) | hot plate latency, difference versus saline (normal rats; 45 or 60 min) | hot plate latency, difference versus saline (normal rats; 75 min) | suppression of spontaneous pain behaviors [1] | block of Ih in large DRG neurons (Ih in large DRG neurons) | effect on thermal hyperalgesia [2] | block of HCN3 hyperpolarization-induced inward currents (human HCN3; 3 mM CsCl) |
| --- | --- | --- | --- | --- | --- | --- | --- | --- | --- |
| CCN(c1ccccc1)c1cc(=NC)n(C)c(C)n1.Cl [ZD7288] | 98+/−2% | did not reverse | minimal effect | No statistically significant difference | approximately 15% | near complete suppression | efficacious block | no effect | – |
| [Cl-].[Cs+] [Cs^+, CsCl] | – | rapidly reversible | – | – | – | – | efficacious block | – | completely blocked |
